Here are results for three compounds from patent US20060134767A1, “Mitotic kinesin binding site” (priority 2002, published 2006).

This assay deals with T1, KSP(367H) (Homo sapiens, UniProt P52732).
T1 construct: Add 18.75 μl of 4 μM stock nucleotide-free KSP(367H)
T1 sequence (P52732 1-367 limits assumed): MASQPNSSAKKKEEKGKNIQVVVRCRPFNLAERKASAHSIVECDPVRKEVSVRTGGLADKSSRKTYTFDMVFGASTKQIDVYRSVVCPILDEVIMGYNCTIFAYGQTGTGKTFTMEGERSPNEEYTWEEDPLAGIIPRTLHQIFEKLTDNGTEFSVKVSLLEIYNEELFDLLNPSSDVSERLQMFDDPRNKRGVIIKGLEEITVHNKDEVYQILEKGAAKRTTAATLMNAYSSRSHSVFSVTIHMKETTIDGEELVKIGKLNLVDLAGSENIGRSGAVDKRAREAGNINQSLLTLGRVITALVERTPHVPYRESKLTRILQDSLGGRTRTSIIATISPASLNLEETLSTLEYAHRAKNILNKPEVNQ
The assay can be described thus: Fluorescence of Trp127 of KSP -/+ inhibitors (in vitro binding assay for the novel KSP binding site). Here is the method: The binding of a ligand to the novel binding site of the instant invention and the formation of the novel binding pocket as a result can als6 be indirectly assessed by spectroscopically determining the shift in the fluorescence of the amino acid 127 tryptophan residue. Thus it has been discovered that the fluorescent emission of Trp127 is modulated when KSP is treated with one of the inhibitors described above in the presence of a nucleotide or nucleotides.
A further embodiment of the instant invention is an in vitro assay for the determination of binding of a test compound to the novel KSP binding site described herein. The assay comprises the steps of: • 1. contacting KSP with the test compound and a nucleotide and measuring the fluorescence of the mixture at the peak emission wavelength for Trp127 in KSP; • 2. contacting KSP with a nucleotide and measuring the fluorescence of the mixture at the peak emission wavelength for Trp127 in KSP; and • 3. comparing the fluorescence of the mixture of KSP, the test compound and the nucleotide with the fluorescence of the mixture of KSP with the nucleotide alone.
In another embodiment of the in vitro fluorescence assay the nucleotide is selected from ADP and AMPPNP (a non-hydrolysable analog of ATP, adenosine 5′-(β,γ-imido)triphosphate tetralithium salt hydrate).
• 2× kinesin buffer: 160 mM K-Hepes, 2 mM MgCl2, 2 mM EGTA, 2 mM DTT (added fresh daily), and 100 mM KCl, pH 6.8. • Nucleotide: nucleotide is resuspended to 200 mM in 50 mM K-Hepes (pH 6.8). • Nucleotide is diluted 1:1 with 200 MM MgCl2 to a stock concentration of 100 mM of 1:1 nucleotide:MgCl2. • Cuvette volume=300 μl Methods • 1) Add 281 μl of 1× kinesin buffer, ±nucleotide, and H2O (Nucleotide=none, 1 mM AMPPNP, or 1 mM ADP (final concentration)). • 2) Add 18.75 μl of 4 μM stock nucleotide-free KSP(367H). • 3) Add compound sequentially from DMSO stock (with all the volume of all additions ≦0.6 μl). • 4) Measure fluorescence after each addition (starting with buffer only). • 5) Example titration for Compound 8-1 with KSP(367H)ADP: 281 μl of 1× kinesin buffer+1 mM ADP: • add 250 nM KSP (18.75 μl of 4 uM nucleotide-free stock) • add 1 nM Compound 8-1 (1 nMf) (addition of 0.3 μl of 0.001 mM stock) • add 2 nM Compound 8-1 (3 nMf) (addition of 0.6 μl of 0.001 mM stock) • add 4 nM Compound 8-1 (7 nMf) (addition of 0.12 μl of 0.01 mM stock) • add 3 nM Compound 8-1 (10 nMf) (addition of 0.09 μl of 0.01 mM stock) • add 20 nM Compound 8-1 (30 nMf) (addition of 0.6 μl of 0.01 mM stock) • add 40 nM Compound 8-1 (70 nMf) (addition of 0.12 μl of 0.1 mM stock) • add 30 nM Compound 8-1 (100 nMf) (addition of 0.09 μl of 0.1 mM stock) • add 200 nM Compound 8-1 (300 nMf) (addition of 0.6 μl of 0.1 mM stock) • add 400 nM Compound 8-1 (700 nMf) (addition of 0.12 μl of 1 mM stock) • add 300 nM Compound 8-1 (1000 nMf) (addition of 0.09 μl of 1 mM stock) • add 2000 nM Compound 8-1 (3000 nMf) (addition of 0.6 μl of 1 mM stock). • 6) After each addition, measure steady-state fluorescence under the following conditions: • λex=[…], λem=342-346 nm, band width=3 nm ex/3 nm em, wavelength increment=0.5 nm, integration time=2 s. • 7) Repeat the same titration series: • in the absence of KSP (to determine compound-related background), and in the absence of KSP, but in the presence of 1 μM L-tryptophan (to determine compound-related effects on the amino acid itself). Calculations
At the peak emission wavelength for W127 in KSP(367H) (=344 nm) measure the compound emission in kinesin buffer as a function of [compound]; measure fluorescence of L-tryptophan as a function of [compound]; measure fluorescence of KSP(367H) as a function of [compound]; correct KSP(367H) fluorescence for its decrease over time (due to losses of protein to the cuvette); subtract compound emission from L-tryptophan emission; subtract compound emission from KSP(367H) emission. […]

[1] abbreviates: in the absence of the nucleotide.
[2] abbreviates: in the presence of ADP or AMPPNP.

On to `CCOC(=O)C1=C(C)NC(=S)NC1c1cccc(O)c1` (single isomer, unassigned; (+)) [Compound 5-2b, (+)-4-(3-Hydroxyphenyl)-6-methyl-2-thioxo-1,2,3,4-tetrahydro-4H-pyrimidin-5-carboxylic acid ethyl ester, reference compound], for which the “fluorescence of Trp127” value is recorded as “does not cause a decrease” under setting [1] and “dose dependent decrease” under setting [2].
For `CC(=O)N1N=C(c2ccccc2Cl)CC1c1cccc(O)c1` (stereo not drawn) [Compound 1-7, 3-[1-acetyl-3-(2-chlorophenyl)-4,5-dihydro-1H-pyrazol-5-yl]phenol], in that order: “does not cause a decrease” and “dose dependent decrease”.
As to `CCC(c1nc2sccc2c(=O)n1Cc1ccccc1)N(CCN(C)C)Cc1ccc(Br)cc1` (stereo not drawn) [Compound 8-1, 3-benzyl-2-(1-{(4-bromobenzyl)[2-(dimethylamino)ethyl]amino}propyl)thieno[2,3-d]pyrimidin-4(3H)-one], the “fluorescence of Trp127” value is, setting by setting: under setting [1], “does not cause a decrease”; under setting [2], “dose dependent decrease”.
